Test results from patent US8952192B2, “Phosphorylated and branched dihydroxy-pentane-dione (DPD) analogs as quorum sensing inhibitors in bacteria” (University of Maryland, College Park, priority 2011, dated 2015).
“Also recorded” adds a separate entry of the source.

Tests used:
[1] = system: lsr expression in E. coli (lsr-lacZ reporter strains); assay: QS response (lsr expression): AI-2 dependent β-galactosidase production, Miller assay; type: cell-based, Escherichia coli; settings: for IC50: concentration reducing lsr expression (β-galactosidase production) to 50% in the presence of 20 μM exogenously added synthetic DPD, read-out: IC50 of analog (nM) to inhibit QS in E. coli; for inhibition of AI-2-mediated lsr expression (β-galactosidase), in words: 20 μM AI-2 (DPD) + 20 μM analog
Procedure: (§1) The panel of C1-alkyl analogs was screened to identify QS modulators in the enteric bacteria E. coli and S. typhimurium. Transcription of the QS associated lsr operon, by using lsr-lacZ reporter strains (Table 2) which produce β-galactosidase in response to added AI-2 was monitored. In order to first establish if the analogs were agonists or antagonists in the QS circuit, the analogs were incubated with E. coli LW7 pLW11 and S. typhimurium MET715 (FIG. 19a-b) both of which are luxS^−. None of the analogs, except ethyl-DPD behaved as agonists for lsr expression. Previous studies investigating AI-2 antagonism in P. aeruginosa or in S. typhimurium were carried out using chemically synthesized AI-2 added to luxS^− cells. […] The same trends were obtained by adding a 1:1 ratio of enzymatically synthesized AI-2 and DPD analogs to the luxS^− strains E. coli LW7 pLW11 and S. typhimurium MET715 (FIG. 11a-b). None of the tested DPD analogs were bacteriocidal or bacteriostatic as the OD600 values of E. coli ZK126 pLW11 and S. typhimurium MET708 in the presence and absence of the analogs were similar (FIG. 10). Though the QS circuitry of the enteric organisms, E. coli and S. typhimurium are homologous they respond differently to the DPD analogs. The E. coli QS circuitry is susceptible to being silenced by a variety of DPD analogs of different shapes and sizes whereas in S. typhimurium, only a handful of DPD analogs could antagonize the action of AI-2. […] Isobutyl-DPD emerged as an effective and non-species-specific quencher; causing significant lsr expression knockdowns in both E. coli and S. typhimurium.
(§2) The QS response indicated by lsr gene expression was analyzed in pure culture studies by culturing E. coli LW7 pLW11, E. coli ZK126 pLW11 and S. typhimurium MET708, S. typhimurium MET715 overnight in LB medium supplemented with appropriate antibiotics as stated previously. These cells were then diluted into fresh LB medium (with antibiotics) and grown to an OD600 of 0.8-1.0 at 30° C., 250 rpm. Cells were then collected by centrifugation at 10,000×g for 10 minutes, and resuspended in 10 mM phosphate buffer. AI-2 (20 μM) and the respective analog (20 μM) were added to the E. coli or S. typhimurium suspension for 2 hours at 37° C. AI-2 dependent β-galactosidase production was quantified by the Miller assay.
(§3) The QS response indicated by lsr gene expression was analyzed in pure culture studies by culturing E. coli LW7 pLW11 and S. typhimurium MET715 overnight at 30° C. in LB medium supplemented with appropriate antibiotics as stated previously. These cells were then diluted into fresh LB medium (with antibiotics) and grown to an OD600 of 0.4-0.8 at 37° C., 250 rpm. Cells were then collected by centrifugation at 10,000×g for 10 min and resuspended in 10 mM phosphate buffer. AI-2 (20 μM) and the respective analog (20 μM) were added to the E. coli or S. typhimurium suspension for 2 h at 37° C. AI-2 dependent β-galactosidase production was quantified by the Miller assay.
(§4) The QS response indicated by lsr gene expression was analyzed in pure culture studies by culturing E. coli LW7 pLW11, E. coli ZK126 pLW11 and S. typhimurium MET708, S. typhimurium MET715 overnight in LB medium individually supplemented with appropriate antibiotics, as specified above. These cells were diluted into fresh LB medium (with antibiotics) and grown to an OD600 of 0.8-1.0 at 30° C., 250 rpm. Cells were collected by centrifugation at 10,000×g for 10 minutes, and resuspended in 10 mM phosphate buffer. AI-2 (20 μM) and the respective analog (20 μM) were added to the E. coli or S. typhimurium suspension for 2 hours at 37° C. AI-2 dependent β-galactosidase production was quantified by the Miller assay.

[2] = system: lsr expression in S. typhimurium (lsr-lacZ reporter strains); assay: as above; type: cell-based, Salmonella typhimurium; settings: for IC50: concentration reducing lsr expression (β-galactosidase production) to 50% in the presence of 20 μM exogenously added synthetic DPD, read-out: IC50 of analog (nM) to inhibit QS in S. typhimurium
Procedure: as §1, §2, §3, §4

V. harveyi = assay: DPD analogs and representative bacterial species affected (Table 1); type: cell-based; design: key: x: DPD Analogs and representative bacterial species affected
E. coli = assay: as above; type: cell-based; design: key: x: DPD Analogs and representative bacterial species affected
LsrK = molecular target: T1, LsrK (Escherichia coli, UniProt P77432); assay: In vitro phosphorylation of analogs by LsrK (TLC, autoradiography); type: biochemical, E. coli; settings: for phosphorylation by E. coli LsrK: incubation with LsrK in vitro for one hour (Example 6)
T1 construct: made in house; host or cells: E. coli BL21
T1 sequence (P77432 whole entry): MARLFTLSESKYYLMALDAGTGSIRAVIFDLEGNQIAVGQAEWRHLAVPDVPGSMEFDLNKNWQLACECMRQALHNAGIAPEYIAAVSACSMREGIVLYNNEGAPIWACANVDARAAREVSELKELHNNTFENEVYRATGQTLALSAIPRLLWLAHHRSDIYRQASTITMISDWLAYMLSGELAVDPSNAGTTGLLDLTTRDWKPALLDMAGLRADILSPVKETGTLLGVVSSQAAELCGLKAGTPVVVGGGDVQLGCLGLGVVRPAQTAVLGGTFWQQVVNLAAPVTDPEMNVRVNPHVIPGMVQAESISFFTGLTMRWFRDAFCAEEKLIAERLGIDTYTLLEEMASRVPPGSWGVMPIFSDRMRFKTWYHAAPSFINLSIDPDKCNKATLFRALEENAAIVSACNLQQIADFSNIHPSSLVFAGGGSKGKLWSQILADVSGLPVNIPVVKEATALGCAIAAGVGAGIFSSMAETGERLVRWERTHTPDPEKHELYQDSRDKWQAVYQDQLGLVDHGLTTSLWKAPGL
Procedure: LsrK was purified and from E. coli BL21 pET200-LsrK as described before. Phosphorylated analogs were synthesized by incubating 1 μM) LsrK with 40 μM ATP (Roche), […] of [γ-^32P] […] A 5 μL aliquot was then spotted onto a cellulose TLC plate (Selecto Scientific). The plate was developed using 0.8 M LiCl as the solvent, air dried and developed via autoradiography.
LsrK was purified from E. coli BL21 pET200-LsrK as described before. Phosphorylated analogs were synthesized by incubating (1 μM) LsrK with (40 μM) ATP (Roche), ([…]) of [P^32] […] An aliquot (2.5 μL) was then spotted onto a cellulose TLC plate (Selecto Scientific). The plate was developed using 0.8 M LiCl as the solvent, air dried and developed via autoradiography.

S. mutans = assay: DPD analogs and representative bacterial species affected (Table 1); type: cell-based; design: key: x: DPD Analogs and representative bacterial species affected
[3] = system: pyocyanin production in P. aeruginosa PAO1; assay: QS response (pyocyanin production); type: cell-based; settings: pure culture P. aeruginosa PAO1, DPD analogs (100 μM)
Procedure: Identifying Modulators of P. aeruginosa QS. DPD analogs (100 μM) were screened for activity in P. aeruginosa PAO1 by monitoring pyocyanin production (FIG. 34b and FIG. 38).
The cells were grown with the analog at 3 mL total volume in 50 mL flasks in LB medium, with continuous shaking. Between 22-24 h, when the cells turned green after pyocyanin secretion, the pigment was extracted. The pyocyanin quantification assay was conducted as described. 2 mL chloroform was added to the 3 mL culture and pipetted up and down. 1 mL of the chloroform was transferred to a separate tube and the pyocyanin was re-extracted into 200 μL of 0.2 M HCl. The absorbance of the solution was measured at OD 520 nm. To calculate the concentration of pyocyanin extracted as μg/mL, the OD at 520 nm was multiplied by 17.07.

[4] = system: lsr expression in E. coli (lsr-lacZ reporter strains); assay: QS response (lsr expression): AI-2 dependent β-galactosidase production, Miller assay; type: cell-based, Escherichia coli; settings: E. coli SH3 (lsrK−, luxS−), 20 μM ethyl-DPD
S. typhimurium MET708 = assay: Trispecies synthetic ecosystem (S. typhimurium, V. harveyi, E. coli): β-galactosidase activity; type: cell-based; settings: trispecies co-culture, lacZ activity after 4 hours
Text: (§5) To investigate the effect of the DPD analogs in a mixed bacterial environment, a synthetic ecosystem composed of three different bacterial populations was assembled. Specifically, S. typhimurium MET708, V. harveyi BB170 and E. coli W3110 (pCT6), each luxS^+ (Table 2), and each producing their native AI-2 were co-cultured in the same tubes. By design, each species was selected so that a different reporter probe would indicate the specific bacterium's QS response: S. typhimurium (MET708) expresses β-galactosidase; V. harveyi (BB170) elicits bioluminescience; and E. coli (W331) are engineered to synthesize GFP. In this way, their responses can be differentiated and quantified in response to AI-2.
(§6) The S. typhimurium MET708, V. harveyi BB170 and E. coli W3110 pCT6 were each cultured separately overnight in LM medium supplemented with the appropriate antibiotic. […] The V. harveyi luminescence response was measured after 2.5 hours. The S. typhimurium lacZ (β-galactosidase) activity was measured after 4 hours. The E. coli response was determined after 8 hours, by fixing the cells with 1:1 cold 4% paraformaldehyde and using flow cytometric analysis. Samples were analyzed by flow cytometery (FACS Canto II, BD 394 Biosciences), with 20,000 gated events analyzed per sample.

V. harveyi BB170 = assay: QS response (bioluminescence), trispecies synthetic ecosystem; type: cell-based; settings: LM media
Procedure: The effect of isobutyl-DPD or isopropyl-DPD on QS associated bioluminescence production by V. harveyi was recorded by measuring the light production from reporter strain, V. harveyi BB170. The analogs were added at concentrations of (20 μM or 40 μM) to V. harveyi BB170 which was assayed as previously described.
The S. typhimurium MET708, V. harveyi BB170 and E. coli W3110 pCT6 were each cultured separately overnight in LM medium supplemented with the appropriate antibiotic. V. harveyi BB170, S. typhimurium MET708 and E. coli MDAI-2 were diluted (1:4:8), respectively, into a single 1 ml volume of fresh LM medium without antibiotics. The co-culture was supplemented with either 20 μM or 40 μM analog initially and again after 3 and 5 hours of growth. The V. harveyi luminescence response was measured after 2.5 hours. The S. typhimurium lacZ (β-galactosidase) activity was measured after 4 hours. The E. coli response was determined after 8 hours, by fixing the cells with 1:1 cold 4% paraformaldehyde and using flow cytometric analysis. Samples were analyzed by flow cytometery (FACS Canto II, BD 394 Biosciences), with 20,000 gated events analyzed per sample.

E. coli W3110 pCT6 = assay: Trispecies synthetic ecosystem: AI-2 stimulated GFP expression, flow cytometry; type: cell-based; settings: trispecies co-culture, flow cytometry after 8 hours; 60.7% without analog
Text: as §5, §6

CCCCC(=O)C(=O)[C@@H](O)CO [Butyl-DPD, butyl-DPD]
IC50 [1]: 2970 nM | effect on native lsr expression (QS response) ([2]; S. typhimurium MET708 (luxS+), cells produce their own AI-2): considerable QS response reduction; also recorded: significantly inhibited signaling | IC50 [2]: > 40000 nM | bacterial species affected: V. harveyi (V. harveyi): x | bacterial species affected: E. coli (E. coli): x

O=C(C(=O)C1CCC1)C(O)CO (centres unmarked) [Cyclobutyl-DPD, Cyclobutyl DPD]
inhibition of AI-2-mediated lsr expression (β-galactosidase), in words ([1]; E. coli LW7 pLW11 (luxS−)): inhibit lsr expression | phosphorylation by E. coli LsrK (LsrK): significantly phosphorylated | bacterial species affected: S. mutans (S. mutans): x

O=C(C(=O)C1CCCCC1)C(O)CO (centres unmarked) [Cyclohexyl-DPD, cyclohexyl-DPD]
inhibition of AI-2-mediated lsr expression (β-galactosidase), in words ([1]; E. coli LW7 pLW11 (luxS−)): attenuated lsr expression in E. coli to a lesser extent | effect on AI-2-mediated lsr expression (β-galactosidase), in words ([2]; S. typhimurium MET715 (luxS−), 20 μM AI-2 (DPD) + 20 μM analog): increased expression | phosphorylation by E. coli LsrK (LsrK): weakly phosphorylated | phosphorylation by E. coli LsrK (LsrK; listed as cyclohexyl): not phosphorylated | bacterial species affected: V. harveyi (V. harveyi): x | bacterial species affected: E. coli (E. coli): x

CCCCCCCC(=O)C(=O)[C@@H](O)CO [Heptyl-DPD, heptyl-DPD]
IC50 [1]: 15900 nM | IC50 [2]: > 40000 nM | inhibition of pyocyanin production [3]: some inhibition | bacterial species affected: E. coli (E. coli): x

CCC(=O)C(=O)[C@@H](O)CO [ethyl-DPD]
agonist activity for lsr expression ([1]; E. coli LW7 pLW11 (luxS−), analog only, no AI-2 added): agonist | agonist activity for lsr expression ([2]; S. typhimurium MET715 (luxS−), analog only, no AI-2 added): agonist | bacterial species affected: V. harveyi (V. harveyi): x | bacterial species affected: E. coli (E. coli): x | lsr transcription in LsrK knockout strain [4]: did not initiate lsr transcription

O=C(C(=O)C(O)CO)c1ccco1 (centres unmarked) [furanosyl-DPD, Furanyl DPD]
inhibition of AI-2-mediated lsr expression (β-galactosidase), in words ([1]; E. coli LW7 pLW11 (luxS−)): minimal | bacterial species affected: S. mutans (S. mutans): x

CC(C)C(=O)C(=O)C(O)CO (centres unmarked) [isopropyl-DPD]
effect on native lsr expression (QS response) ([1]; E. coli ZK126 pLW11 (luxS+), cells produce their own AI-2): substantial reduction; also recorded: partial antagonist | phosphorylation by LsrK (LsrK; incubation with LsrK and excess ATP for 2 hours (Example 1)): phosphorylated | reduction of the S. typhimurium response, in words (S. typhimurium MET708): unable to cause any reduction | decrease of bioluminescence in V. harveyi (V. harveyi BB170; 20 μM): 50% | decrease of bioluminescence in V. harveyi (V. harveyi BB170; 40 μM): 50% | QS positive (green, GFP) cells of the E. coli population after analog addition (E. coli W3110 pCT6): 21.4% | bacterial species affected: E. coli (E. coli): x
